In the supplement of paper PMC11061612:

What was measured:
Test in all cases: combination Emax (second highest fraction inhibited in the dose matrix, 72 h); higher = more inhibition; extreme values may be limits of the assay
[1] = system: SU8686 (Pancreatic Carcinoma)
How it was run: (§1)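 Cell lines grown in DMEM/F12 or RPMI with 10% FBS were plated in 1536-well plates and held 24 hours at 37°C, 5% CO2 before 72 hours of exposure to two-drug dose matrices, with DMSO typically at 0.2%. CellTiter-Glo 2.0 luminescence gave viability, which was converted to inhibition. Vehicle wells were set to 0 and blank wells to 1. Combination Emax is the second-highest inhibition in the matrix, and Bliss excess is the observed combination effect minus the expected EA + EB − EA·EB, where EA and EB are the single-agent effects.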

TGW (Neuroblastoma) = system: TGW (Neuroblastoma)
How it was run: as §1

D-263MG (Glioblastoma) = system: D-263MG (Glioblastoma)
How it was run: as §1

[2] = system: EFM-19 (Breast Carcinoma)
How it was run: as §1

[3] = system: HOP-62 (Lung Adenocarcinoma)
How it was run: as §1

[4] = system: Ca9-22 (Head and Neck Carcinoma)
How it was run: as §1

[5] = system: SCC-15 (Oral Cavity Carcinoma)
How it was run: as §1

[6] = system: HSC-4 (Oral Cavity Carcinoma)
How it was run: as §1

TK10 (Kidney Carcinoma) = system: TK10 (Kidney Carcinoma)
How it was run: as §1

[7] = system: NCI-H358 (Lung Adenocarcinoma)
How it was run: as §1

UACC-62 (Melanoma) = system: UACC-62 (Melanoma)
How it was run: as §1

[8] = system: KARPAS-299 (T-Cell Non-Hodgkin's Lymphoma)
How it was run: as §1

YH-13 (Glioblastoma) = system: YH-13 (Glioblastoma)
How it was run: as §1

[9] = system: OVCAR-4 (Ovarian Carcinoma)
How it was run: as §1

EW-24 (Ewing's Sarcoma) = system: EW-24 (Ewing's Sarcoma)
How it was run: as §1

[10] = system: PANC-04-03 (Pancreatic Carcinoma)
How it was run: as §1

[11] = system: Hs-766T (Pancreatic Carcinoma)
How it was run: as §1

[12] = system: EoL-1-cell (Acute Myeloid Leukemia)
How it was run: as §1

[13] = system: NUGC-3 (Gastric Carcinoma)
How it was run: as §1

PWR-1E (Non-Cancerous) = system: PWR-1E (Non-Cancerous)
How it was run: as §1

| Structure (SMILES) | combination Emax [1] | combination Emax (TGW (Neuroblastoma)) | combination Emax (D-263MG (Glioblastoma)) | combination Emax [2] | combination Emax [3] | combination Emax [4] | combination Emax [5] | combination Emax [6] | combination Emax (TK10 (Kidney Carcinoma)) | combination Emax [7] | combination Emax (UACC-62 (Melanoma)) | combination Emax [8] | combination Emax (YH-13 (Glioblastoma)) | combination Emax [9] | combination Emax (EW-24 (Ewing's Sarcoma)) | combination Emax [10] | combination Emax [11] | combination Emax [12] | combination Emax [13] | combination Emax (PWR-1E (Non-Cancerous)) |
| --- | --- | --- | --- | --- | --- | --- | --- | --- | --- | --- | --- | --- | --- | --- | --- | --- | --- | --- | --- | --- |
| COc1nnc2ccc(N3CCC(c4ccc(OCCN5CCN(C)C(=O)[C@H]5C)cc4)CC3)nn12 [AZD5153] + Cn1cnc2c(F)c(Nc3ccc(Br)cc3Cl)c(C(=O)NOCCO)cc21 [Selumetinib] (first compound max 1 µM, 7x7, partner max 10 µM) | 0.241 | 0.602 | 0.441 | 0.28 | 0.668 | 0.699 | 0.584 | 0.423 | 0.604 | 0.589 | 0.947 | 0.996 | 0.546 | 0.492 | 0.444 | 0.548 | 0.589 | 1 | 0.649 | 0.777 |
| CC1(C)CCC(CN2CCN(c3ccc(C(=O)NS(=O)(=O)c4ccc(NCC5CCOCC5)c([N+](=O)[O-])c4)c(Oc4cnc5[nH]ccc5c4)c3)CC2)=C(c2ccc(Cl)cc2)C1 [Venetoclax] + COc1cc(Nc2ncc3c(n2)-c2ccc(Cl)cc2C(c2c(F)cccc2OC)=NC3)ccc1C(=O)O [Alisertib] (first compound max 1 µM, 7x7, partner max 10 µM) | 0.117 | 0.972 | 0.518 | 0.557 | 0.456 | 0.706 | 0.378 | 0.28 | 0.35 | 0.442 | 0.314 | 0.762 | 0.549 | 0.344 | 0.428 | 0.263 | 0.393 | 1 | 0.436 | 0.859 |
| CC1(C)CCC(CN2CCN(c3ccc(C(=O)NS(=O)(=O)c4ccc(NCC5CCOCC5)c([N+](=O)[O-])c4)c(Oc4cnc5[nH]ccc5c4)c3)CC2)=C(c2ccc(Cl)cc2)C1 [Venetoclax] + CN(C)CCCOc1ccc(-c2ccc3ncc4c(c3c2)n(C2CCOCC2)c(=O)n4C)cn1 [AZD0156] (first compound max 1 µM, 7x7, partner max 1 µM) | 0.152 | 0.32 | 0.171 | 0.546 | 0.242 | 0.48 | 0.245 | 0.14 | 0.304 | 0.325 | 0.487 | 0.807 | 0.198 | 0.173 | 0.323 | 0.18 | 0.41 | 0.986 | 0.276 | 0.217 |
| Cc1c2c(nn1C)CSCc1cc(n(C)n1)CSc1cc(c3ccccc3c1)OCCCc1c(C(=O)O)n(C)c3c-2c(Cl)ccc13 [AZD5991] + CC1(C)CCC(CN2CCN(c3ccc(C(=O)NS(=O)(=O)c4ccc(NCC5CCOCC5)c([N+](=O)[O-])c4)c(Oc4cnc5[nH]ccc5c4)c3)CC2)=C(c2ccc(Cl)cc2)C1 [Venetoclax] (first compound max 1 µM, 7x7, partner max 1 µM) | 0.0608 | 0.857 | 0.863 | 0.624 | 0.0765 | 0.725 | 0.236 | 0.142 | 0.208 | 0.217 | 0.962 | 0.968 | 0.145 | 0.188 | 0.38 | 0.175 | 0.184 | 1 | 0.196 | 0.199 |
| NC1(C(=O)N[C@@H](CCO)c2ccc(Cl)cc2)CCN(c2ncnc3[nH]ccc23)CC1 [Capivasertib] + CC(=O)c1c(C)c2cnc(Nc3ccc(N4CCNCC4)cn3)nc2n(C2CCCC2)c1=O [Palbociclib] (first compound max 10 µM, 7x7, partner max 10 µM) | 0.07 | 0.378 | 0.448 | 0.481 | 0.572 | 0.442 | 0.35 | 0.423 | 0.516 | 0.436 | 0.492 | 0.479 | 0.609 | 0.168 | 0.495 | 0.261 | 0.36 | 0.858 | 0.592 | 0.535 |
| CS(=O)(=O)CCNCc1ccc(-c2ccc3ncnc(Nc4ccc(OCc5cccc(F)c5)c(Cl)c4)c3c2)o1 [Lapatinib] + C[C@@H](Oc1cc(-c2cnn(C3CCNCC3)c2)cnc1N)c1c(Cl)ccc(F)c1Cl [Crizotinib] (first compound max 10 µM, 7x7, partner max 10 µM) | 0.16 | 0.776 | 0.595 | 0.554 | 0.842 | 0.987 | 0.944 | 0.465 | 0.656 | 0.926 | 0.66 | 0.978 | 0.809 | 0.727 | 0.9 | 0.594 | 0.319 | 0.988 | 0.96 | 0.928 |
